According to patent US5618675A, “Methods and compositions for detecting lipopolysaccharides using CAP18 fragments” (Panorama Research, Inc., dated 1997):

How the values were obtained:
[1] = tested on: human mononuclear cells; assay: LPS-induced tissue factor by human mononuclear cells; assay type: cell-based; conditions: for Δ Units (%): LPS alone 100, 960 min
Description: Human mononuclear cells were separated from citrated peripheral blood by centrifugation over Sodium-metrizoate-Ficoll (lymphocyte Separation Medium, Japan Antibody Institute, Gumma). The resulting mixed mononuclear cell suspension was washed 3 times with RPMI 1640 media. Cell suspension (1×10^6 /ml) was stimulated with LPS for 16 to 18 hr.
Veronal buffered saline (VBS) was added to the cell pellet, lysed by 3 cycles of freeze/thaw and sonicated for 10 sec with a hand-held sonicator microbe (Handy Sonic, model UR-20P, Tomy Seiko LTD, Tokyo). Tissue factor activity was tested in modified unactivated partial thromboplastin time (7). One tenth ml of cell lysate (1×10^6 /ml) was preincubated with mouse plasma at 37° C. for 3 min. Then 0.1 ml of 25 mM-CaCl2 which contains phospholipid was added to the mixture and clotting time was measured using a fibrometer (Bio Quest Division, Becton Dickinson, Cokeysville, USA). A standard curve obtained from serial two-fold dilutions of rabbit brain thromboplastic (Simplastin, Ono Pharmaceutical Co.) was used to transpose tissue factor activity into arbitrary tissue factor units (1 μg/ml) suspension of rabbit brain was assigned a value of 1,000 units).
The mean tissue factor units+standard error was determined from three to four samples. Student's t test for unpair data was used to determine the statistically significant differences. A two-tailed P value of <0.05 was considered significant.
S. minnesota SmoothLPS (2 μg/ml) was preincubated with equal volume of
each LPSbinding protein (28HA) at 37° C. for 45 minutes, and the
mixture was added to the cells and cultured for 16 hours.

[2] = tested on: human monocytes; assay: TNF release from LPS and IFNγ stimulated monocytes; assay type: cell-based
[3] = tested on: E. coli 09:K39 K^+ strain; assay: Antibacterial CFU assay; conditions: FIG. 6H
[4] = tested on: E. coli; assay: Antibacterial CFU assay; conditions: read-out: IC50, inhibition of CFU; FIG. 6I
[5] = tested on: E. coli 09:K39 K^- strain; assay: Antibacterial CFU assay; conditions: FIG. 6H
[6] = tested on: Streptococcus pneumoniae; assay: Bacterial proliferation, 3H-thymidine incorporation; assay type: cell-based
Description: (§1) Bacteria were grown in trypticase broth overnight.
(§2) To corroborate the anti-bacterial activity shown in the CFU assays, inhibition of proliferation of bacteria was tested directly using a ^3 H-thymidine incorporation assay. […] In summary although there is some strain to strain variation in the IC50, all of the Gram-negativestrains tested in two different types of assays were sensitive to these anti-microbial peptides.

[7] = tested on: Staphylococcus aureus, coagulase positive; assay: as above; assay type: cell-based
Description: as §1, §2

[8] = tested on: Klebsiella pneumoniae; assay: as above; assay type: cell-based
Description: as §1, §2

[9] = tested on: Pseudomonas aeruginosa; assay: as above; assay type: cell-based
Description: as §1, §2

[10] = tested on: Streptococcus pyogenes; assay: as above; assay type: cell-based
Description: as §1, §2

[11] = first experiment, LPS 0.1 μg/ml
[12] = second experiment, LPS 0.1 μg/ml
[13] = RNIP 6 μg/ml (so in the source)

Substance: RNIP: reactive nitrogen inhibitory protein, amino acids 135-171 of SEQ ID NO:4 (rabbit CAP18 C-terminus); purified from granulocytes or synthetic (#197) (GLRKRLRKFRNKIKEKLKKIGQKIQGLLPKLAPRTDY)
- Inhibition (%) [1, 11]: 51%
- Tissue Factor, figure in parentheses (relative to unstimulated = 1.0) ([1]; first experiment, LPS 0.1 μg/ml, LPS alone 16.6): 9.0
- Δ Units (%) [1, 11]: 49%
- Δ Units ([1]; first experiment, LPS 0.1 μg/ml, LPS alone 17118): 8342
- Tissue Factor ([1]; first experiment, LPS 0.1 μg/ml, LPS alone 18214 ± 4192, RNIP 2 HA units, CAP-18 1 HA unit): 9438 ± 293 Units × 10^3 /3.6 × 10^4 cells
- Inhibition (%) [1, 12]: 41%
- Tissue Factor, figure in parentheses (relative to unstimulated = 1.0) ([1]; second experiment, LPS 0.1 μg/ml, LPS alone 14.7): 9.0
- Δ Units (%) [1, 12]: 59%
- Δ Units ([1]; second experiment, LPS 0.1 μg/ml, LPS alone 6726): 3950
- Tissue Factor ([1]; second experiment, LPS 0.1 μg/ml, LPS alone 7218 ± 264, HA units HP-1 4, HP-2 2, RNIP 2, CAP-18 1): 4442 ± 982 Units × 10^3 /3.6 × 10^4 cells
- Tissue Factor, figure in parentheses (relative to unstimulated = 1.0) ([1]; second experiment, no LPS): 1.3
- Δ Units ([1]; second experiment, no LPS): 144
- Tissue Factor ([1]; second experiment, no LPS, unstimulated 492 ± 75): 636 ± 141 Units × 10^3 /3.6 × 10^4 cells
- TNF ([2]; Human IFNγ (100 U), (1:1), stimulus alone 2.0): 0.27 ng/mL
- TNF ([2]; Human IFNγ (100 U), (1:10), stimulus alone 2.0): 0.35 ng/mL
- TNF ([2]; Human IFNγ (100 U), (1:100), stimulus alone 2.0): 0.35 ng/mL
- TNF ([2]; LPS (10 ng/ml), (1:1), stimulus alone 1.0): 0.12 ng/mL
- TNF ([2]; LPS (10 ng/ml), (1:10), stimulus alone 1.0): 0.34 ng/mL
- TNF ([2]; LPS (10 ng/ml), (1:100), stimulus alone 1.0): 0.23 ng/mL
- anti-bacterial IC50 [3]: 0.14 µg/mL
- IC50 ([3]; read-out: anti-bacterial IC50): 0.02 µM
- IC50 [4]: 0.08 µM
- anti-bacterial IC50 [5]: 0.68 µg/mL
- IC50 ([5]; read-out: anti-bacterial IC50): 0.11 µM
- Percent inhibition of proliferation ([6]; RNIP 1.25 μg/ml): 47%
- Percent inhibition of proliferation ([6]; RNIP 2.5 μg/ml): 68%
- Percent inhibition of proliferation ([6]; RNIP 5.0 μg/ml): 93%
- Percent inhibition of proliferation [6, 13]: 31%
- Percent inhibition of proliferation ([7]; RNIP 1.25 μg/ml): 57%
- Percent inhibition of proliferation ([7]; RNIP 2.5 μg/ml): 72%
- Percent inhibition of proliferation ([7]; RNIP 5.0 μg/ml): 83%
- Percent inhibition of proliferation [7, 13]: 23%
- Percent inhibition of proliferation ([8]; RNIP 1.25 μg/ml): 14%
- Percent inhibition of proliferation ([8]; RNIP 2.5 μg/ml): 17%
- Percent inhibition of proliferation ([8]; RNIP 5.0 μg/ml): 60%
- Percent inhibition of proliferation [8, 13]: 4%
- Percent inhibition of proliferation ([9]; RNIP 1.25 μg/ml): 82%
- Percent inhibition of proliferation ([9]; RNIP 2.5 μg/ml): 96%
- Percent inhibition of proliferation ([9]; RNIP 5.0 μg/ml): 99%
- Percent inhibition of proliferation [9, 13]: 75%
- Percent inhibition of proliferation ([10]; RNIP 1.25 μg/ml): 79%
- Percent inhibition of proliferation ([10]; RNIP 2.5 μg/ml): 90%
- Percent inhibition of proliferation ([10]; RNIP 5.0 μg/ml): 96%
- Percent inhibition of proliferation [10, 13]: 74%
